Source: PMC8119466, “A screen of FDA-approved drugs identifies inhibitors of protein tyrosine phosphatase 4A3 (PTP4A3 or PRL-3)” (Scientific Reports, 2021)
Where a name gives a salt, the structure may show the parent alone. Read-outs that look alike come from different tables or passages of the source.

Columns and labels:
Format in all cases: biochemical
recombinant PRL-3 = target: T1, recombinant PRL-3 (Homo sapiens, UniProt O75365); assay: In vitro phosphatase assay (DiFMUP hydrolysis), PRL-3; further: test concentration or dose not given here
T1 construct: 6xHis (N, cleaved yes); made in house; host or cells: E. coli One Shot BL21 Star
T1 sequence (O75365 whole entry): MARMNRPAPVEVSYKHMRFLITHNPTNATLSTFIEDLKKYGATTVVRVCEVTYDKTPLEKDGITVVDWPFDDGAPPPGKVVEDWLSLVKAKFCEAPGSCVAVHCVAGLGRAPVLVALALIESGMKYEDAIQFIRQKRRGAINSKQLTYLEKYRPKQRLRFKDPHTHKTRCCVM

recombinant PRL-1 = target: T2, recombinant PRL-1 (Homo sapiens, UniProt Q93096); assay: In vitro phosphatase assay (DiFMUP hydrolysis), PRL-1; further: test concentration or dose not given here
T2 construct: 6xHis (N, cleaved yes); made in house; host or cells: E. coli One Shot BL21 Star
T2 sequence (Q93096 1-173): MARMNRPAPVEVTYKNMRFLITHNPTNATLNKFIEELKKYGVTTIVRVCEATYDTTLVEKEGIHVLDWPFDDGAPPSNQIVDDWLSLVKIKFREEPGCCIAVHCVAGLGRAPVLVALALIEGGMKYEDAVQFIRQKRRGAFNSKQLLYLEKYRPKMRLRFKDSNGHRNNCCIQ

recombinant PRL-2 = target: T3, recombinant PRL-2 (Homo sapiens, UniProt Q12974); assay: In vitro phosphatase assay (DiFMUP hydrolysis), PRL-2;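 further: PRL-2 activity read as DiFMUP hydrolysis after 20 min at room temperature with drug, enzyme first pre-reduced at 4 °C for 20 min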
T3 construct: 6xHis (N, cleaved yes); made in house; host or cells: E. coli One Shot BL21 Star
T3 sequence (Q12974 1-167): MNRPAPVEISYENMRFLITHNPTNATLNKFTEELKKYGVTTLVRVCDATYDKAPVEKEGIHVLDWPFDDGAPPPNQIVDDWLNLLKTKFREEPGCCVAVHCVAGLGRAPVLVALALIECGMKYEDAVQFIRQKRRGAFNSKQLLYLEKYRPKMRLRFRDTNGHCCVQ

[1] = FDA-approved drug screen, compared to DMSO
[2] = FDA-approved drug screen, activity compared to DMSO

| Structure (SMILES) | % Phosphatase Activity (compared to DMSO) PRL-3 (recombinant PRL-3; [1]) | % Phosphatase Activity (compared to DMSO) PRL-1 (recombinant PRL-1; [1]) | % Phosphatase Activity (compared to DMSO) PRL-2 (recombinant PRL-2; [1]) | further results |
| --- | --- | --- | --- | --- |
| O=C([O-])Cc1ccccc1Nc1c(Cl)cccc1Cl.[K+] [Diclofenac Potassium] | 99% | 115% | 132% |  |
| COc1cc(OC)c(/C=C/S(=O)(=O)Cc2ccc(OC)c(NCC(=O)O)c2)c(OC)c1 [Rigosertib (ON-01910)] | 78% | 95% | 86% |  |
| CCOC(=O)c1c(C)n(C)c2ccc(O)cc12 [Mecarbinate] | 77% | 108% | 100% |  |
| O=C(NC1CCN(CCCCC2(C(=O)NCC(F)(F)F)c3ccccc3-c3ccccc32)CC1)c1ccccc1-c1ccc(C(F)(F)F)cc1 [Lomitapide] | 117% | 124% | 118% |  |
| c1ccc(C2CN3CCSC3=N2)cc1 (single isomer, unassigned; (-)) [(-)-Tetramisole] |  |  |  | % Phosphatase Activity (compared to DMSO) PRL-3 (recombinant PRL-3): 99%; % Phosphatase Activity (compared to DMSO) PRL-1 (recombinant PRL-1): 93%; % Phosphatase Activity (compared to DMSO) PRL-2 (recombinant PRL-2): 92% |
| NCC[C@H](O)C(=O)N[C@@H]1C[C@H](N)[C@@H](O[C@H]2O[C@H](CN)[C@@H](O)[C@H](O)[C@H]2O)[C@H](O)[C@H]1O[C@H]1O[C@H](CO)[C@@H](O)[C@H](N)[C@H]1O [Amikacin hydrate] | 107% | 91% | 95% |  |
| Cn1cnc2c(F)c(Nc3ccc(Br)cc3Cl)c(C(=O)NOCCO)cc21 [Selumetinib (AZD6244)] | 87% | 92% | 93% |  |
| COC1=CC(=O)C[C@@H](C)[C@]12Oc1c(Cl)c(OC)cc(OC)c1C2=O [Griseofulvin] | 90% | 112% | 125% |  |
| CN[C@H]1CC[C@@H](c2ccc(Cl)c(Cl)c2)c2ccccc21 [Sertraline HCl] |  |  |  | % Phosphatase Activity (compared to DMSO) PRL-3 (recombinant PRL-3; [2]): 75%; % Phosphatase Activity (compared to DMSO) PRL-1 (recombinant PRL-1; [2]): 96%; % Phosphatase Activity (compared to DMSO) PRL-2 (recombinant PRL-2; [2]): 101% |
| Clc1ccc(COC(Cn2ccnc2)c2ccc(Cl)cc2Cl)c(Cl)c1 (stereo not drawn) [Miconazole Nitrate] | 92% | 98% | 93% |  |
| CNCC[C@@H](Oc1ccccc1C)c1ccccc1 [Atomoxetine HCl] | 89% | 98% | 109% |  |
| CN(C)CCCOc1nn(Cc2ccccc2)c2ccccc12 [Benzydamine HCl] | 77% | 100% | 116% |  |
| O=C(O)/C=C/c1ccc(Cn2ccnc2)cc1 [Ozagrel] | 76% | 96% | 101% |  |
| CC(C)OC(=O)OCOP(=O)(CO[C@H](C)Cn1cnc2c(N)ncnc21)OCOC(=O)OC(C)C [Tenofovir Disoproxil Fumarate] |  |  |  | % Phosphatase Activity (compared to DMSO) PRL-3 (recombinant PRL-3; [2]): 82%; % Phosphatase Activity (compared to DMSO) PRL-1 (recombinant PRL-1; [2]): 95%; % Phosphatase Activity (compared to DMSO) PRL-2 (recombinant PRL-2; [2]): 93% |
| c1ccc2[nH]c(-c3cscn3)nc2c1 [Thiabendazole] |  |  |  | % Phosphatase Activity (compared to DMSO) PRL-3 (recombinant PRL-3; [2]): 119%; % Phosphatase Activity (compared to DMSO) PRL-1 (recombinant PRL-1; [2]): 99%; % Phosphatase Activity (compared to DMSO) PRL-2 (recombinant PRL-2; [2]): 99% |
| O=c1[nH]c(=O)n([C@H]2C[C@H](O)[C@@H](CO)O2)cc1F [Floxuridine] | 70% | 93% | 100% |  |
| CC(C)NCC(O)COc1ccc(COCCOC(C)C)cc1 (stereo not drawn) [Bisoprolol fumarate] | 89% | 104% | 124% |  |
